# From PubChem BioAssay AID1378 (University of Pittsburgh Molecular Library Screening Center, 2008)
# Calls of active or inactive are those of the source. No rule for the calls is given here.
# Target: RAC-alpha serine/threonine-protein kinase (Homo sapiens) (UniProt P31749)
# Test: AKT1 kinase inhibition by PKD hits, dose response, selectivity assay for PKD inhibitor project, biochemical, 57K library, IC50 (AID 1378)
# RAC-alpha serine/threonine-protein kinase (Homo sapiens), sequence (P31749 whole entry, looked up): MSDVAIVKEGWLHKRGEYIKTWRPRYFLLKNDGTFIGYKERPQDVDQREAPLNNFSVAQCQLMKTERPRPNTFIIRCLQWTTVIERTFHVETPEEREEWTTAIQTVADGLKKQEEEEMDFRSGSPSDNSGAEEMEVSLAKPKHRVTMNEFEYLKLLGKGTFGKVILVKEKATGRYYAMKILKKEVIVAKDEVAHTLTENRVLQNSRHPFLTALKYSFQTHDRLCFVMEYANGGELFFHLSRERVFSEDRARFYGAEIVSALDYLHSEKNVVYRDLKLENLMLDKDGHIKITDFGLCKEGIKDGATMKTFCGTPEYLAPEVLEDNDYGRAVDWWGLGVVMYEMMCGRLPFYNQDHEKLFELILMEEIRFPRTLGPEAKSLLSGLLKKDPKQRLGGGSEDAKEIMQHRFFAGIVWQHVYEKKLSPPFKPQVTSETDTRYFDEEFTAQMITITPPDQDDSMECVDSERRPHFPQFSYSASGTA
compound,measurement,value
C/C(=N\Nc1ncc(Cl)cc1Cl)c1ccccn1,IC50,> 100 µM (inactive)
